We go through two compounds from US12486214B2, “Rosmarinic acid derivative, Rosmarinic acid-derived particles, composition containing same for treating inflammatory disease” (KOREA ADVANCED INSTITUTE OF SCIENCE AND TECHNOLOGY, priority 2020, dated 2025).

Data set [1] in a line: Particle size, zeta potential and morphology (DLS/PCS, TEM). It counts as physicochemical. As to the method: PEG-RA (20 mg) was dissolved in 4 mL of a 1:3 mixture (v/v) of chloroform:methanol and mixed for several minutes. The organic solvent was then removed by rotary vacuum evaporation and was further dried under a nitrogen flow for 30 minutes to yield a film layer. The film layer was suspended in 1 mL of PBS (137 mM NaCl, 2.7 mM KCl, 10 mM Na2HPO4, 2 mM KH2PO4, pH 7.4) and the resulting micelle suspension was sonicated in a bath sonicator (50 W, 40 kHz) for 10 minutes to yield uniform-sized RANPs. The micelle solution was maintained at 4° C., and directly used in the experiments below. The particle size of RANPs was analyzed by photon correlation spectroscopy (PCS) using a Nanosizer ZS90 (Malvern Instrument Ltd., Malvern, UK) equipped with 4.0 mW HeNe laser and an avalanche photodiode detector operating at 633 nm. Zeta potential was also measured at 25° C. in aqueous solutions (pH 7) by using the same equipment. The morphological characteristics of RANPs were examined using negative-staining transmission electron microscopy (TEM). Briefly, a drop of the diluted sample was placed on copper grids coated with a carbon film, stained with 0.5% w/v uranyl acetate solution, and dried at room temperature. The grids were imaged using a Tecnai F20 (FEI Co., Hillsboro, OR, USA) transmission electron microscope. […]
The hydrodynamic size and zeta potential of RANPs in phosphate buffer solution (pH 7.4), measured by dynamic light scattering (DLS), were 67.5±3.5 nm and −33.70 mV, respectively, indicating the exposure of the PEG layer on the surface of nanoparticles (FIG. 1C and Table 1).
The product was then analyzed through UV-Vis spectrometry using Beckman Coulter DU-800 UV-Vis spectrometer. The particle size of the HA-RA nanoparticles was obtained by measuring the hydrodynamic size of HA-RA nanoparticles in phosphate buffer solution (pH 7.4), measured by dynamic light scattering (DLS). […]
The LMWC-RA of the present disclosure was prepared into nanoparticles by the method shown in Example 8, and then the hydrodynamic size and zeta potential value thereof were measured.

Data set [2] deals with inflammatory bowel disease model mice. In words: Effect of oral HA-RANPs (and HA, RA, 5-ASA) on inflammatory bowel disease model mice (3% DSS). It counts as in vivo. The conditions noted are these: 5 times: HA-RANPs 100 mg/kg, HA 85 mg/kg, RA 15 mg/kg, 5-ASA 100 mg/kg. As to the method: To investigate the antiinflammatory therapeutic efficacy of HA-RANPs in inflammatory bowel disease model mice, the present inventors performed the following tests. By using the inflammatory bowel disease model in which 3% DSS and drinking water were administered to mice (C57BL/6, 6 weeks old, female, 7-day acclimatization) for 5 days, three dose concentrations (20, 50, and 100 mg/kg) of HA-RANPs were orally administered for 5 days (D+1 to D+5, one time/day) for a total of 5 times. The degree of disease progression and the antiinflammatory effect of HA-RANPs were examined through weight changes (measured daily) of all groups of mice and the extraction and tests of the large intestine on the last day.
In addition, the myeloperoxidase (MPO) activity and inflammatory cytokine expression were examined through ELISA assay. Specifically, the same portion of each mouse colon sample was cut, pre-treated, and minced, and then a predetermined amount thereof was centrifuged to obtain a supernatant, and thereafter, the supernatant was subjected to the following assay. The MPO activity is an index to evaluate the infiltration of neutrophils into the inflamed tissue. The measurement of MPO activity is disclosed in Grisham et al. (1990) or the like.
The change in extent of inflammation in the colon was investigated by histopathological examination, that is, examining the degrees of structural integrity loss, crypt destruction, and mucosal surface changes.
The present inventors evaluated the effect of the HA-RANPs of the present disclosure on inflammatory bowel disease model mice through the comparison with HA and RA. The inflammatory bowel disease model was induced by the same method as in the above-described experiment, wherein 100 mg/kg of HA-RANPs as a drug and the equal amounts of Free HA (85 mg/kg), RA (15 mg/kg), and 5-amino salicylic acid (5-ASA) (100 mg/kg) as positive drug controls were administered orally (a total of 5 times, one time/day, D+1 to D+5).

A short description of data set [3]: Solubility in distilled water or DMSO. It counts as physicochemical.
The conditions of data set [4]: free RA, rats, intravenous 0.625 mg/kg; cited from earlier work.
The conditions of data set [5]: in vivo; cited from earlier work.

Where two headings read alike, the source gives them in different places. Bounds are passed on as bounds.

Usually solubility stands for how much of the substance goes into solution per volume. In the case of `O=C(/C=C/c1ccc(O)c(O)c1)O[C@H](Cc1ccc(O)c(O)c1)C(=O)O` [Rosmarinic acid (RA), rosmarinic acid], in data set [1], the Conductivity is 24.10 mS/cm, the Mobility is on record as −1.217 μm cm/Vs and the Zeta potential was −15.53 mV. Moreover, in data set [2], the “MPO activity and pro-inflammatory cytokine levels” value is “somewhat relieved”; the “body weight loss and colon length shortening on day 10” value was “slight efficacy”; the “colon histopathology (H&E stained biopsy)” value was “slightly relieved”; the “expression of tight junction-related genes ZO-1, claudin-1, and occludin in colon” value is on record as “improved”. The solubility in data set [3] (DMSO, organic solvent or mixture, read-out: solubility in DMSO) was no more than 25 mg/mL. Moreover, the “dissolution in distilled water” value in data set [3] (at 5 mg/ml) is given as “only partially dissolved”. Further, in data set [3] (distilled water, water, read-out: solubility in distilled water), the solubility is no more than 0.041 mg/mL. Also, in data set [4], the area under the curve (AUC) was 4090 ng·h/mL, the “circulation (or elimination) half-life (t1/2)” value is 42.9 min and the “mean residence time (MRT)” value is 50.1 min. Also, the “time within which RA is usually excreted from the body” value in data set [5] was no more than 30 min.

For the compound `Nc1ccc(O)c(C(=O)O)c1` [5-ASA, 5-amino salicylic acid], in data set [2], the “MPO activity and pro-inflammatory cytokine levels” value is given as “somewhat relieved”; the “body weight loss and colon length shortening on day 10” value was “significantly low”; the “colon histopathology (H&E stained biopsy)” value is reported as “slightly relieved”; the “expression of tight junction-related genes ZO-1, claudin-1, and occludin in colon” value is given as “improved”.
